24 molecules from US20230399312A1, “SUBSTITUTED PYRIMIDINES AND METHODS OF USE” (THERAVANCE BIOPHARMA R&D IP, LLC, priority 2020, published 2023) can be followed below.

Assay [1] concerns TGF-β-stimulated SMAD3 phosphorylation in BEAS-2B cells. Description: Cellular ALK5 potency assay, inhibition of TGF-β stimulated pSMAD3 formation in BEAS-2B cells. Conditions: Homo sapiens, pSMAD3, TGF-β 10 ng/mL, read-out: BEAS2B pIC50 (converted). It counts as cell-based. An outline of the steps: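 Human lung epithelial BEAS-2B cells were preincubated 1 h at 37 °C with compound in HBSS/HEPES/1% BSA, then stimulated 30 min with 10 ng/mL TGF-β. pSMAD3 in lysates was quantified by AlphaLISA relative to untreated stimulated cells; reported as pIC50.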

In assay [2] the target is T1, recombinant human ALK5 (TGF-βR1) protein (Homo sapiens, UniProt P36897).
T1 construct: purchased Life Technologies PR9075A
T1 sequence (P36897 34-503): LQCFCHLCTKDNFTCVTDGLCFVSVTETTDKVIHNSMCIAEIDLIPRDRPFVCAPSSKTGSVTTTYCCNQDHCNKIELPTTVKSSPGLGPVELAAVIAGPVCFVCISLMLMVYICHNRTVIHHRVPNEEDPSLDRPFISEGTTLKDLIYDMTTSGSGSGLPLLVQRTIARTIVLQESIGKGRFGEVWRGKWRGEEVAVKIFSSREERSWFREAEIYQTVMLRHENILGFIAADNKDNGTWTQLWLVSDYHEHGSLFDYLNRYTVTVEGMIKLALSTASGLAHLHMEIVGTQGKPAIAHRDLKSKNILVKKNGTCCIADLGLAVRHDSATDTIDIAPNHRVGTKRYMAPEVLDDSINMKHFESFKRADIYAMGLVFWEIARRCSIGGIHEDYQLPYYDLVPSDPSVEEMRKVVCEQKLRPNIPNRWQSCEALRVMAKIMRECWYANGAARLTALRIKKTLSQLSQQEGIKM
Description: Biochemical ALK5 (TGF-βR1) assay to measure pKi (LANCE Ultra ULight kinase assay). Conditions: apparent pKi, converted from pIC50 by Cheng-Prusoff. An outline of the steps:
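Enzyme preincubated with compound for 60 min at room temperature, then reacted with ATP (125 μM as 5× stock) for 60 min at 37 °C. Stopped with EDTA plus Eu-anti-phospho-Topoisomerase 2-alpha (Thr1342) antibody and read by TR-FRET at 665 nm. pIC50 from a 4-parameter fit, converted to pKi by Cheng-Prusoff.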
For orientation: In TR-FRET formats the signal depends on donor and acceptor labels being close together.

Take `Fc1ccc(-c2nccc(Nc3ccnc(Nc4ccc(N5CCOCC5)cc4)n3)n2)nc1C(F)F` [Compound 426, N4-(2-(6-(difluoromethyl)-5-fluoropyridin-2-yl)pyrimidin-4-yl)-N2-(4-morpholinophenyl)pyrimidine-2,4-diamine]: the IC50 in assay [1] is 25.1 to 158 nM. Besides, the Ki in assay [2] was 3.98 to 31.6 nM.

Take `CNCCNS(=O)(=O)c1ccc(Nc2nccc(Nc3ccnc(-c4cccc(C)n4)n3)n2)cc1` [Compound 427, N-[2-(methylamino)ethyl]-4-[[4-[[2-(6-methyl-2-pyridyl)pyrimidin-4-yl]amino]pyrimidin-2-yl]amino]benzenesulfonamide]: the IC50 in assay [1] was 25.1 to 158 nM. For the same molecule, in assay [2], the Ki was 0.0398 to 0.316 nM.

In the case of `Cc1cccc(-c2nccc(Nc3ccnc(Nc4ccc(CN5CCC[C@@H](C(=O)O)C5)cc4)n3)n2)n1` [Compound 428, (3R)-1-[[4-[[4-[[2-(6-methyl-2-pyridyl)pyrimidin-4-yl]amino]pyrimidin-2-yl]amino]phenyl]methyl] piperidine-3-carboxylic acid], in assay [1], the IC50 was 200 to 1260 nM. Also, the Ki in assay [2] is 0.0398 to 0.316 nM.

For `Cc1cccc(-c2nccc(Nc3ccnc(Nc4ccc(N5CCN(C6CCNC6)CC5)cc4)n3)n2)n1` (stereo not drawn) [Compound 429, N4-[2-(6-methyl-2-pyridyl)pyrimidin-4-yl]-N2-[4-(4-pyrrolidin-3-ylpiperazin-1-yl)phenyl]pyrimidine-2,4-diamine], in assay [1], the IC50 was 200 to 1260 nM. The Ki in assay [2] is 0.0398 to 0.316 nM.

For `Cc1cccc(-c2nccc(Nc3ccnc(Nc4cccc(S(=O)(=O)NCCN)c4)n3)n2)n1` [Compound 430, N-(2-aminoethyl)-3-[[4-[[2-(6-methyl-2-pyridyl)pyrimidin-4-yl]amino]pyrimidin-2-yl]amino]benzenesulfonamide], the IC50 in assay [1] was 25.1 to 158 nM. For the same molecule, the Ki in assay [2] was 0.0398 to 0.316 nM.

As for `COc1ccc(Nc2nccc(Nc3ccnc(-c4cccc(C)n4)n3)n2)cc1CN1C[C@@H](C)N[C@@H](C)C1` [Compound 431, N2-[4-methoxy-3-[[rac-(3R,5S)-3,5-dimethylpiperazin-1-yl]methyl]phenyl]-N4-[2-(6-methyl-2-pyridyl)pyrimidin-4-yl]pyrimidine-2,4-diamine], the IC50 in assay [1] was 25.1 to 158 nM. In addition, the Ki in assay [2] was 0.0398 to 0.316 nM.

For the molecule `Cc1cccc(-c2nccc(Nc3ccnc(Nc4ccc(N5CCC(N(C)Cc6ccccc6)CC5)cc4)n3)n2)n1` [Compound 432, N2-[4-[4-[benzyl(methyl)amino]-1-piperidyl]phenyl]-N4-[2-(6-methyl-2-pyridyl)pyrimidin-4-yl]pyrimidine-2,4-diamine], in assay [1], the IC50 is 25.1 to 158 nM. Besides, the Ki in assay [2] is 0.0398 to 0.316 nM.

Regarding `Cc1cccc(-c2nccc(Nc3ccnc(Nc4ccc(N5CCCC(C(=O)OCC6CNC6)C5)cc4)n3)n2)n1` (stereo not drawn) [Compound 433, azetidin-3-ylmethyl 1-[4-[[4-[[2-(6-methyl-2-pyridyl)pyrimidin-4-yl]amino]pyrimidin-2-yl]amino]phenyl]piperidine-3-carboxylate], in assay [1], the IC50 is 25.1 to 158 nM. Further, the Ki in assay [2] was 0.0398 to 0.316 nM.

On to `Cc1cccc(-c2nccc(Nc3ccnc(Nc4ccc(C(=O)N5CCN(C)CC5)cc4)n3)n2)n1` [Compound 434, (4-methylpiperazin-1-yl)-[4-[[4-[[2-(6-methyl-2-pyridyl)pyrimidin-4-yl]amino]pyrimidin-2-yl]amino]phenyl]methanone], for which the IC50 in assay [1] is 25.1 to 158 nM. In assay [2], the Ki was 0.0398 to 0.316 nM.

For `Cc1cccc(-c2nccc(Nc3ccnc(Nc4ccc(NC(=O)N5C[C@@H](C)N[C@@H](C)C5)cc4)n3)n2)n1` [Compound 435, rac-(3S,5R)-3,5-dimethyl-N-[4-[[4-[[2-(6-methyl-2-pyridyl)pyrimidin-4-yl]amino]pyrimidin-2-yl]amino]phenyl]piperazine-1-carboxamide], in assay [1], the IC50 is 25.1 to 158 nM. For the same molecule, in assay [2], the Ki was 0.0398 to 0.316 nM.

On to `CN1CCN(C2CCN(c3ccc(Nc4nccc(Nc5ccnc(-c6cc(Cl)ccc6F)n5)n4)cc3)CC2)CC1` [Compound 436, N4-[2-(5-chloro-2-fluoro-phenyl)pyrimidin-4-yl]-N2-[4-[4-(4-methylpiperazin-1-yl)-1-piperidyl]phenyl]pyrimidine-2,4-diamine], for which the IC50 in assay [1] was 25.1 to 158 nM. In addition, the Ki in assay [2] was 0.0398 to 0.316 nM.

With `COC(=O)c1cnc(-c2cccc(C)n2)nc1Nc1ccnc(Nc2ccc(N)cc2)n1` [Compound 437, methyl 4-[[2-(4-aminoanilino)pyrimidin-4-yl]amino]-2-(6-methyl-2-pyridyl)pyrimidine-5-carboxylate], the IC50 in assay [1] is 25.1 to 158 nM. The Ki in assay [2] is 0.398 to 3.16 nM.

With `Cc1cccc(-c2nccc(Nc3ccnc(Nc4ccc(CN5CC(C)(N)C5)cc4)n3)n2)n1` [Compound 438, N2-[4-[(3-amino-3-methyl-azetidin-1-yl)methyl]phenyl]-N4-[2-(6-methyl-2-pyridyl)pyrimidin-4-yl]pyrimidine-2,4-diamine], in assay [1], the IC50 was 25.1 to 158 nM. Besides, in assay [2], the Ki is 0.0398 to 0.316 nM.

Take `Cc1cccc(-c2nccc(Nc3ccnc(Nc4ccc(C(=O)O)s4)n3)n2)n1` [Compound 439, 5-[[4-[[2-(6-methyl-2-pyridyl)pyrimidin-4-yl]amino]pyrimidin-2-yl]amino]thiophene-2-carboxylic acid]: the IC50 in assay [1] is 200 to 1260 nM. Moreover, in assay [2], the Ki was 0.398 to 3.16 nM.

In the case of `Cc1cccc(-c2nccc(Nc3ccnc(Nc4ccc(-c5cnn(CCN)c5)cc4)n3)n2)n1` [Compound 440, N2-[4-[1-(2-aminoethyl)pyrazol-4-yl]phenyl]-N4-[2-(6-methyl-2-pyridyl)pyrimidin-4-yl]pyrimidine-2,4-diamine], the IC50 in assay [1] is 25.1 to 158 nM. In assay [2], the Ki was 0.0398 to 0.316 nM.

As to `Cc1cccc(-c2nccc(Nc3ccnc(Nc4ccc(NS(=O)(=O)N(C)C5CCNCC5)cc4)n3)n2)n1` [Compound 441, 4-[[2-[4-[[methyl(4-piperidyl)sulfamoyl]amino]anilino]pyrimidin-4-yl]amino]-2-(6-methyl-2-pyridyl)pyrimidine], the IC50 in assay [1] was 25.1 to 158 nM. Further, the Ki in assay [2] is 0.0398 to 0.316 nM.

With `COC(=O)Cc1ccc(Nc2nccc(Nc3ccnc(-c4cccc(C)n4)n3)n2)cc1` [Compound 442, methyl 2-[4-[[4-[[2-(6-methyl-2-pyridyl)pyrimidin-4-yl]amino]pyrimidin-2-yl]amino]phenyl]acetate], the IC50 in assay [1] is 25.1 to 158 nM. Besides, the Ki in assay [2] is 0.398 to 3.16 nM.

Consider `Cc1cccc(-c2nccc(Nc3ccnc(Nc4cccc(NC(=O)C5CCCNC5)c4)n3)n2)n1` (stereo not drawn) [Compound 443, N-(3-((4-((2-(6-methylpyridin-2-yl)pyrimidin-4-yl)amino)pyrimidin-2-yl)amino)phenyl)piperidine-3-carboxamide], for which the IC50 in assay [1] is at most 20 nM. In addition, the Ki in assay [2] is 0.0398 to 0.316 nM.

For the molecule `Cc1cccc(-c2nccc(Nc3ccnc(Nc4ccc(CN5CCCC(C(=O)O)C5)cc4)n3)n2)n1` (stereo not drawn) [Compound 444, 1-[[4-[[4-[[2-(6-methyl-2-pyridyl)pyrimidin-4-yl]amino]pyrimidin-2-yl]amino]phenyl]methyl] piperidine-3-carboxylic acid], the IC50 in assay [1] is 25.1 to 158 nM. In addition, in assay [2], the Ki was 0.0398 to 0.316 nM.

On to `Cc1cccc(-c2nccc(Nc3ccnc(Nc4ccc(N5CCNCC5)c(Cl)c4)n3)n2)n1` [Compound 445, N2-(3-chloro-4-piperazin-1-yl-phenyl)-N4-[2-(6-methyl-2-pyridyl)pyrimidin-4-yl]pyrimidine-2,4-diamine], for which the IC50 in assay [1] is 25.1 to 158 nM. For the same molecule, in assay [2], the Ki was 0.0398 to 0.316 nM.

`CN1CCN(C2CCN(c3ccc(Nc4nccc(Nc5ccnc(-c6ccccc6F)n5)n4)cc3)CC2)CC1` [Compound 446, N4-[2-(2-fluorophenyl)pyrimidin-4-yl]-N2-[4-[4-(4-methylpiperazin-1-yl)-1-piperidyl]phenyl]pyrimidine-2,4-diamine]: the IC50 in assay [1] was 25.1 to 158 nM. The Ki in assay [2] is 0.398 to 3.16 nM.

Consider `Cc1cccc(-c2nccc(Nc3ccnc(Nc4ccc(N5CCNCC5)c(C#N)c4)n3)n2)n1` [Compound 447, 5-[[4-[[2-(6-methyl-2-pyridyl)pyrimidin-4-yl]amino]pyrimidin-2-yl]amino]-2-piperazin-1-yl-benzonitrile], for which the IC50 in assay [1] was 25.1 to 158 nM. Besides, in assay [2], the Ki was 0.0398 to 0.316 nM.

With `Cc1cccc(-c2nccc(Nc3ccnc(Nc4ccc(N5CCN(C(CCO)C(=O)O)CC5)cc4)n3)n2)n1` (stereo not drawn) [Compound 448, 4-hydroxy-2-[4-[4-[[4-[[2-(6-methyl-2-pyridyl)pyrimidin-4-yl]amino]pyrimidin-2-yl]amino]phenyl]piperazin-1-yl]butanoic acid], in assay [1], the IC50 is 25.1 to 158 nM. Moreover, in assay [2], the Ki was 0.0398 to 0.316 nM.

Take `CC[C@H](C)OC(=O)CC1CNCCN1c1ccc(Nc2nccc(Nc3ccnc(-c4cccc(C)n4)n3)n2)cc1` (stereo partly drawn) [Compound 449, [(1S)-1-methylpropyl] 2-[1-[4-[[4-[[2-(6-methyl-2-pyridyl)pyrimidin-4-yl]amino]pyrimidin-2-yl]amino]phenyl]piperazin-2-yl]acetate]: the IC50 in assay [1] is 25.1 to 158 nM. In addition, the Ki in assay [2] is 0.0398 to 0.316 nM.
